{"source": "patent US20140039047A1", "about": "“METHODS FOR REGULATING SIRTUIN GENE EXPRESSION” (priority 2011, published 2014)", "test_in_all_cases": "Quantitative PCR of sirtuin gene expression in canine adipocytes treated with Equol", "format_in_all_cases": "cell-based", "conditions_in_all_cases": "24 hours, terminally differentiated canine adipocytes, normalized to cyclophilin A (PPIA), n=3", "key": {"SIRT6": {"tested_on": "SIRT6", "protocol": "(§1) Treatment: Terminally differentiated canine adipocytes were exposed to 200, 25, and 0 uM Equol for 24 hours. Cells were collected for RNA isolation.\n(§2) RNA Isolation: Treatment cell samples were vortexed and homogenized using a Quiashredder (Qiagen, Valencia, Calif.) column according to manufacturer's directions. The homogenized lysate was collected and 1 equal volume of 64% ethanol was added to it. This mixture was then applied to an RNAqueous™ filter cartridge, (Ambion Inc., Austin, Tex.) 700 uL at a time, and centrifuged for one minute at 10,000 rpm. The cartridge was washed using 700 uL wash solution #1 and 500 uL wash solution #⅔ with centrifugation at 10,000 rpm for one minute for each wash. The filter cartridge was dried by centrifugation (10,000 rpm) for one minute. RNA was eluted three times by centrifugation (as above) using 30 uL aliquots of 70-80° C. elution solution. The resulting RNA was DNAse-treated and quantitated in a Beckman DU 640B spectrophotometer (Beckman Coulter, Inc., Brea, Calif.) at 260 nm. Additionally, quantity and quality were assessed using a bioanalyzer (Agilent, Santa Clara, Calif.) according to manufacturer's directions.\n(§3) Quantitative PCR: All samples were run singularly against each primer/probe set to determine what standard curve(s) should be used. Standard curves were generated using serial dilutions of RNA from experimental samples with the lowest CT (cycle threshold) for a given target. 1-2 samples were re-reverse transcribed and a 1:5 serial dilution were used as the standard curve for a given target. Targets run included sirtuin −1, −2, −3 and −6. Values were normalized to cyclophilin A (PPIA) levels as determined by quantitative PCR. Inductions were calculated from each of the lowest sample's normalized value. Each set was run with n=3."}, "SIRT1": {"tested_on": "SIRT1", "protocol": "as §1, §2, §3"}, "SIRT3": {"tested_on": "SIRT3", "protocol": "as §1, §2, §3"}, "SIRT2": {"tested_on": "SIRT2", "protocol": "as §1, §2, §3"}}}
{"smiles": "Oc1ccc([C@H]2COc3cc(O)ccc3C2)cc1", "note": "[Equol]", "values": [{"measurement": "Expression of SIRT6 gene (relative expression)", "setting": "SIRT6; 25 uM Equol", "result": 1.10}, {"measurement": "Expression of SIRT6 gene (relative expression)", "setting": "SIRT6; 200 uM Equol", "result": 1.23}, {"measurement": "Expression of SIRT1 gene (relative expression)", "setting": "SIRT1; 25 uM Equol", "result": 1.17}, {"measurement": "Expression of SIRT1 gene (relative expression)", "setting": "SIRT1; 200 uM Equol", "result": 1.80}, {"measurement": "Expression of SIRT3 gene (relative expression)", "setting": "SIRT3; 25 uM Equol", "result": 10.86}, {"measurement": "Expression of SIRT3 gene (relative expression)", "setting": "SIRT3; 200 uM Equol", "result": 17.21}, {"measurement": "Expression of SIRT2 gene (relative expression)", "setting": "SIRT2; 25 uM Equol", "result": 1.22}, {"measurement": "Expression of SIRT2 gene (relative expression)", "setting": "SIRT2; 200 uM Equol", "result": 2.37}]}
